Experimental data as given in patent US20250302815A1, “PROTEIN TYROSINE PHOSPHATASE TARGETING LIGANDS” (CALICO LIFE SCIENCES LLC, priority 2021, published 2025).

Experiments:
[1] = biological target: T1, PTPN2 (HiBIT-PTPN2 in 293T.109 cells) (Homo sapiens, UniProt P17706); test: HiBiT Degradation 293T.109 PTPN2 (Nano-Glo HiBiT Lytic Assay); type: cell-based; details: 24.0 hours
T1 construct: expressed in transfected cells; host or cells: 293T.109 (293T WT from ATCC)
T1 sequence (P17706 1-415): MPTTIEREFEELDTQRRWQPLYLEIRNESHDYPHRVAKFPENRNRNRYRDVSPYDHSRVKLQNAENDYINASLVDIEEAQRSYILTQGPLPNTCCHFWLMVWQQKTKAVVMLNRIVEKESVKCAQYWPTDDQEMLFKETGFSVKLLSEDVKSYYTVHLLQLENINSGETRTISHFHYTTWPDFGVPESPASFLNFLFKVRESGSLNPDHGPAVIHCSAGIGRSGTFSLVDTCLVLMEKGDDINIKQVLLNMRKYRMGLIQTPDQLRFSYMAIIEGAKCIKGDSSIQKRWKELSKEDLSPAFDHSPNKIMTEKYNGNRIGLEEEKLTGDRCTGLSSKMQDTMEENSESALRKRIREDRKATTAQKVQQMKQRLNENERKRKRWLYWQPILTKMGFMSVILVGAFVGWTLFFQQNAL
Method in brief: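 Degradation read-out: lytic HiBiT luminescence after 24 h treatment (37 °C, 5% CO2) of 5000 293T cells per well expressing HiBiT-fused PTPN2 from an N-terminal tag. Dosing was 11 points, half-log steps down from 10 μM, in duplicate; vehicle-treated and no-reagent wells served as controls.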

[2] = biological target: T2, PTPN2 (B16F10.4 cells) (Mus musculus, UniProt Q06180); test: HiBiT Degradation B16F10.4 PTPN2; type: cell-based; details: 24.0 hours
T2 construct: HiBiT; host or cells: B16F10.4
T2 sequence (Q06180 1-406): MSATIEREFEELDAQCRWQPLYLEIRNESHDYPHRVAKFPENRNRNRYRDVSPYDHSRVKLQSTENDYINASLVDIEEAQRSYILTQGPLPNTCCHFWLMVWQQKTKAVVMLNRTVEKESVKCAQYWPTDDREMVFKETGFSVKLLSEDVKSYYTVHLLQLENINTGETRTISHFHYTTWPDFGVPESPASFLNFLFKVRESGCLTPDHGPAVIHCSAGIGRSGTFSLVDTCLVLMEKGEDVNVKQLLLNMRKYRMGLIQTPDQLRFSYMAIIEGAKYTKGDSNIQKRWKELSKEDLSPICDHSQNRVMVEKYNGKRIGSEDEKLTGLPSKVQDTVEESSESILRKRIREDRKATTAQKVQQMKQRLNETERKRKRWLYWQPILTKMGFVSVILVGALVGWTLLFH

DC50 [1] [nM] | DC50 [2] [nM] | SMILES
50 to 200 | < 50 | Cn1c(=O)n(C2CCC(=O)NC2=O)c2ccc(C3CCN(C(=O)Nc4cc(CS(=O)(=O)N5CCC(Nc6cccc(-c7sc(C(=O)O)c(OCC(=O)O)c7Cl)c6)CC5(C)C)ccc4F)CC3)cc21 (stereo not drawn) [Example 114, 3-(carboxymethoxy)-4-chloro-5-[3-[[1-[[3-[[4-[1-(2,6-dioxo-3-piperidyl)-3-methyl-2-oxo-benzimidazol-5-yl]piperidine-1-carbonyl]amino]-4-fluoro-phenyl]methylsulfonyl]-2,2-dimethyl-4-piperidyl]amino]phenyl]thiophene-2-carboxylic acid]
50 to 200 | 200 to 1000 | Cn1c(=O)n(C2CCC(=O)NC2=O)c2ccc(C3CCN(C(=O)Nc4cccc(CS(=O)(=O)N5CCC(Nc6cccc(-c7sc(C(=O)O)c(OCC(=O)O)c7Cl)c6)CC5(C)C)c4F)CC3)cc21 (stereo not drawn) [Example 115, 3-(carboxymethoxy)-4-chloro-5-[3-[[1-[[3-[[4-[1-(2,6-dioxo-3-piperidyl)-3-methyl-2-oxo-benzimidazol-5-yl]piperidine-1-carbonyl]amino]-2-fluoro-phenyl]methylsulfonyl]-2,2-dimethyl-4-piperidyl]amino]phenyl]thiophene-2-carboxylic acid]
50 to 200 | 50 to 200 | Cn1c(=O)n(C2CCC(=O)NC2=O)c2ccc(OC3CN(C(=O)Nc4cccc(CS(=O)(=O)N5CC[C@H](Nc6cccc(-c7sc(C(=O)O)c(OCC(=O)O)c7Cl)c6)CC5(C)C)c4)C3)cc21 (stereo partly drawn) [Example 116]
50 to 200 | 50 to 200 | Cn1c(=O)n(C2CCC(=O)NC2=O)c2ccc(N3CCC(OC(=O)Nc4cccc(CS(=O)(=O)N5CC[C@H](Nc6cccc(-c7sc(C(=O)O)c(OCC(=O)O)c7Cl)c6)CC5(C)C)c4)CC3)cc21 (stereo partly drawn) [Example 117, 3-(carboxymethoxy)-4-chloro-5-[3-[[(4S)-1-[[3-[[1-[1-(2,6-dioxo-3-piperidyl)-3-methyl-2-oxo-benzimidazol-5-yl]-4-piperidyl]oxycarbonylamino]phenyl]methylsulfonyl]-2,2-dimethyl-4-piperidyl]amino]phenyl]thiophene-2-carboxylic acid]
200 to 1000 | 50 to 200 | Cn1c(=O)n(C2CCC(=O)NC2=O)c2ccc(OC3CCN(C(=O)Nc4cccc(CS(=O)(=O)N5CC[C@H](Nc6cccc(-c7sc(C(=O)O)c(OCC(=O)O)c7Cl)c6)CC5(C)C)c4)CC3)cc21 (stereo partly drawn) [Example 118]
50 to 200 | 50 to 200 | Cn1c(=O)n(C2CCC(=O)NC2=O)c2ccc(C3CCN(C(=O)Nc4cc(CS(=O)(=O)N5CC[C@H](Nc6cccc(-c7sc(C(=O)O)c(OCC(=O)O)c7Cl)c6)CC5(C)C)ccc4F)CC3)cc21 (stereo partly drawn) [Example 119, 3-(carboxymethoxy)-4-chloro-5-[3-[[(4S)-1-[[3-[[4-[1-(2,6-dioxo-3-piperidyl)-3-methyl-2-oxo-benzimidazol-5-yl]piperidine-1-carbonyl]amino]-4-fluoro-phenyl]methylsulfonyl]-2,2-dimethyl-4-piperidyl]amino]phenyl]thiophene-2-carboxylic acid]
50 to 200 | < 50 | Cn1c(=O)n(C2CCC(=O)NC2=O)c2ccc(C3CCN(C(=O)Nc4cc(CS(=O)(=O)N5CC[C@@H](Nc6cccc(-c7sc(C(=O)O)c(OCC(=O)O)c7Cl)c6)CC5(C)C)ccc4F)CC3)cc21 (stereo partly drawn) [Example 120]
200 to 1000 | 50 to 200 | Cn1c(=O)n(C2CCC(=O)NC2=O)c2ccc(C3CCN(C(=O)Nc4cccc(CS(=O)(=O)N5CCC(Nc6cc(-c7sc(C(=O)O)c(OCC(=O)O)c7Cl)ccc6F)CC5)c4)CC3)cc21 (stereo not drawn) [Example 121, 3-(carboxymethoxy)-4-chloro-5-[3-[[1-[[3-[[4-[1-(2,6-dioxo-3-piperidyl)-3-methyl-2-oxo-benzimidazol-5-yl]piperidine-1-carbonyl]amino]phenyl]methylsulfonyl]-4-piperidyl]amino]-4-fluoro-phenyl]thiophene-2-carboxylic acid]
50 to 200 | 50 to 200 | Cn1c(=O)n(C2CCC(=O)NC2=O)c2ccc(N3CCC(C(=O)Nc4cccc(CS(=O)(=O)N5CC[C@H](Nc6cccc(-c7sc(C(=O)O)c(OCC(=O)O)c7Cl)c6)CC5(C)C)c4)CC3)cc21 (stereo partly drawn) [Example 122]
50 to 200 | 50 to 200 | Cn1c(=O)n(C2CCC(=O)NC2=O)c2ccc(C3CCN(C(=O)Nc4cccc(CS(=O)(=O)N5CCC(Nc6cccc(-c7sc(C(=O)O)c(OCC(=O)O)c7Cl)c6F)CC5)c4)CC3)cc21 (stereo not drawn) [Example 123, 3-(carboxymethoxy)-4-chloro-5-[3-[[1-[[3-[[4-[1-(2,6-dioxo-3-piperidyl)-3-methyl-2-oxo-benzimidazol-5-yl]piperidine-1-carbonyl]amino]phenyl]methylsulfonyl]-4-piperidyl]amino]-2-fluoro-phenyl]thiophene-2-carboxylic acid]
200 to 1000 | ≥ 1000 | CC1(C)C[C@@H](Nc2cccc(-c3sc(C(=O)O)c(OCC(=O)O)c3Cl)c2)CCN1S(=O)(=O)Cc1cccc(NC(=O)N2CCC(n3c(=O)n(C4CCC(=O)NC4=O)c4ccccc43)CC2)c1 (stereo partly drawn) [Example 124, 3-(carboxymethoxy)-4-chloro-5-[3-[[(4S)-1-[[3-[[4-[3-(2,6-dioxo-3-piperidyl)-2-oxo-benzimidazol-1-yl]piperidine-1-carbonyl]amino]phenyl]methylsulfonyl]-2,2-dimethyl-4-piperidyl]amino]phenyl]thiophene-2-carboxylic acid]
50 to 200 | < 50 | Cn1c(=O)n(C2CCC(=O)NC2=O)c2ccc(C3CCN(C(=O)Nc4cccc(CS(=O)(=O)N5CC[C@H](Nc6cccc(-c7sc(C(=O)O)c(OCC(=O)O)c7Cl)c6)CC5(C)C)c4F)CC3)cc21 (stereo partly drawn) [Example 125, 3-(carboxymethoxy)-4-chloro-5-[3-[[(4S)-1-[[3-[[4-[1-(2,6-dioxo-3-piperidyl)-3-methyl-2-oxo-benzimidazol-5-yl]piperidine-1-carbonyl]amino]-2-fluoro-phenyl]methylsulfonyl]-2,2-dimethyl-4-piperidyl]amino]phenyl]thiophene-2-carboxylic acid]
50 to 200 | < 50 | CC1(C)C[C@@H](Nc2cccc(-c3sc(C(=O)O)c(OCC(=O)O)c3Cl)c2)CCN1S(=O)(=O)Cc1ccc(F)c(NC(=O)N2CCC(c3ccc4c5c(cccc35)C(=O)N4C3CCC(=O)NC3=O)CC2)c1 (stereo partly drawn) [Example 126]
200 to 1000 | < 50 | CC1(C)C[C@H](Nc2cccc(-c3sc(C(=O)O)c(OCC(=O)O)c3Cl)c2)CCN1S(=O)(=O)Cc1ccc(F)c(NC(=O)N2CCC(c3ccc4c5c(cccc35)C(=O)N4C3CCC(=O)NC3=O)CC2)c1 (stereo partly drawn) [Example 127]
50 to 200 | < 50 | CC1(C)C[C@@H](Nc2cccc(-c3sc(C(=O)O)c(OCC(=O)O)c3Cl)c2)CCN1S(=O)(=O)Cc1cccc(NC(=O)N2CCC(c3ccc4c5c(cccc35)C(=O)N4C3CCC(=O)NC3=O)CC2)c1F (stereo partly drawn) [Example 128, 3-(carboxymethoxy)-4-chloro-5-(3-(((4S)-1-((3-(4-(1-(2,6-dioxopiperidin-3-yl)-2-oxo-1,2-dihydrobenzo[cd]indol-6-yl)piperidine-1-carboxamido)-2-fluorobenzyl)sulfonyl)-2,2-dimethylpiperidin-4-yl)amino)phenyl)thiophene-2-carboxylic acid]
